# Values of other authors, collected in US8173626B2, “Methods, dosing regimens and medications using anti-progestational agents for the treatment of disorders” (Danco Laboratories LLC, priority 2006, dated 2012).
# Where two headings read alike, the source gives them in different places.
# What was measured:
# breakthrough bleeding = conditions: cited from earlier work; for subjects with irregular or prolonged bleeding: Newton et al.; for days of vaginal bleeding: Tyler et al.
# glucocorticoid receptors = biological target: T1, glucocorticoid receptors (Homo sapiens, UniProt P04150); conditions: cited from earlier work
# T1 sequence (P04150 1-777): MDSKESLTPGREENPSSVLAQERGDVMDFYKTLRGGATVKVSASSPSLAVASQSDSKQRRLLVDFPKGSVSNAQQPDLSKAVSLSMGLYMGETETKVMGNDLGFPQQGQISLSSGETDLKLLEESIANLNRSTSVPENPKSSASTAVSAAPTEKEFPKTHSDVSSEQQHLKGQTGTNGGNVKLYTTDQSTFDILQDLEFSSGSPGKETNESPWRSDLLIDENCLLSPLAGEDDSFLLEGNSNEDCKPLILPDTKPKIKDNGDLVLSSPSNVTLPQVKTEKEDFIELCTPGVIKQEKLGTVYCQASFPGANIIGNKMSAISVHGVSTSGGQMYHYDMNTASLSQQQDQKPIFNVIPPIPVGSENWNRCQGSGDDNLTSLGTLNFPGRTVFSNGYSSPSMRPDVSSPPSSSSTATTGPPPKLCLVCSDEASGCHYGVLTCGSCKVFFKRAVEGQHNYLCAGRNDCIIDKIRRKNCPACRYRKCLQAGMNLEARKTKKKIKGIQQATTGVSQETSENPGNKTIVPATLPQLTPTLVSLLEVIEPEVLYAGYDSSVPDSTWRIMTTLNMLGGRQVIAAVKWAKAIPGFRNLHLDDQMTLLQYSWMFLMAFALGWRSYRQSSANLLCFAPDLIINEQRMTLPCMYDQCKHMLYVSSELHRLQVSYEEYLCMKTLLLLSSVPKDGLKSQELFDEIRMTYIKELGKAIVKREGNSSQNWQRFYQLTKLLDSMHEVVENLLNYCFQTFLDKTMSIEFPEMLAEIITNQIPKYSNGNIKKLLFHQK
molecule,measurement,setting,value
"CC(=O)O[C@]1(C(C)=O)CC[C@H]2[C@@H]3C[C@H](C)C4=CC(=O)CC[C@]4(C)[C@H]3CC[C@@]21C [DMPA, depo-medroxyprogesterone acetate]",subjects with irregular or prolonged bleeding,breakthrough bleeding; 9-12th month of use,34%
same,days of vaginal bleeding,breakthrough bleeding; between the first and second injection,around 30 % of days
same,days of vaginal bleeding,breakthrough bleeding; between the second and third injection,~20 % of days
same,subjects with irregular or prolonged bleeding,breakthrough bleeding; first 3 months of DMPA,90%
same,discontinuation rate due to breakthrough bleeding,"breakthrough bleeding; first year of use, Toppozada et al.",≤ 40%
"(11β,17α)-(4-acetylphenyl)-17,23-epoxy-19,24-dinorchola-4,9,20-trien-3-one [Org 33628]",activity against glucocorticoid receptors,glucocorticoid receptors,substantially inactive
"C[C@@H]1C[C@@H]2C(=C3CCC(=O)C=C31)[C@@H](c1ccc(N(C)C)cc1)C[C@@]1(C)[C@H]2CC[C@@]12CCCO2 [Org 31710, (6α,11β,17β)-11-(4-NMe2-phenyl)-6-Me-4′,5′-dihydrospiro[oestra-4,9-diene-17,2(3′H)-furan]-3-one]",activity against glucocorticoid receptors,glucocorticoid receptors,substantially inactive
"C[C@H]1CC2=CC(=O)CCC2=C2[C@@H]1[C@@H]1CC[C@@]3(CCCO3)[C@@]1(C)C[C@@H]2c1ccc(N(C)C)cc1 [Org 31806, (7β,11β,17β)-11-(4-NMe2-phenyl)-7-Me-4′,5′-dihydrospiro(oestra-4,9-diene-17,2′(3′H)-furan)-3-one]",activity against glucocorticoid receptors,glucocorticoid receptors,substantially inactive
CC(=O)c1ccc([C@H]2C[C@@]3(C)[C@@H](CC[C@@]3(O)C(F)(F)C(F)(F)F)[C@@H]3CCC4=CC(=O)CCC4=C32)cc1 [ZK230211],activity against glucocorticoid receptors,glucocorticoid receptors,substantially inactive
